Measured values as given in patent US20220202882A1, “EFFECT OF COMBINATION OF BIFIDOBACTERIUM AND BERBERINE ON PRE-DIABETES AND TYPE 2 DIABETES” (The Fourth Military Medical University, priority 2018, published 2022).
Counter-ions that a name gives are not always drawn.

System: pre-diabetic and type 2 diabetes mellitus patients
Assay: Clinical trial: blood lipids (total cholesterol, HDL, LDL)
Type: in vivo, human
Conditions: for Effect on total cholesterol level (in words) / High-density lipoprotein change, mean value / Post-treatment low-density lipoprotein - pre-treatment low-density lipoprotein, mean value / Post-treatment total cholesterol - pre-treatment total cholesterol, mean value: 16 weeks of treatment; for Effect on total cholesterol level (in words): Kruskal-Wilcox test; for Post-treatment low-density lipoprotein, mean value / Post-treatment total cholesterol, mean value: after 16 weeks of treatment; for Pre-treatment low-density lipoprotein, mean value / Pre-treatment total cholesterol, mean value: baseline before treatment
Method: From June 2015 to October 2018, a double-blind, randomized, and parallel-controlled trial, studying the effects of the combined use of Bifidobacterium and berberine on pre-diabetic and type 2 diabetes mellitus patients, was conducted in 10 research centers in Xi'an, Yan'an and Shangluo of Shaanxi province, etc., including the First Affiliated Hospital of the Fourth Military Medical University. The trial included an enrollment stage of 2 weeks and a treatment stage of 16 weeks. After passing the first visit 1 (see V1 in Table 1), the subjects entered the enrollment stage, i.e., 2 weeks of lifestyle intervention, followed by a re-screening (see V2 in Table 1). The subjects were subjected to a 16-week course of treatment after passing the screening. See Table 1 for the detailed screening parameters. After the enrollment stage, the baseline data of the 300 successfully enrolled subjects were collected. Meanwhile, the subjects started to receive lifestyle guidance, and were randomly divided into four groups for 16 weeks of treatments. 1) Bifidobacterium group: the subjects were administered with Bifidobacterium capsules (Livzon Pharmaceutical Group Inc., batch no.: 20141013), 0.35 g/capsule, each capsule containing 50,000,000 viable bacteria (Bifidobacterium adolescentis DM8504), 2 capsules/time, 2 times/day, plus berberine placebo tablets (Northeast Pharma Group Shenyang First Pharma Co., Ltd., Lot no.: 20150101, containing 80.2% microcrystalline cellulose, 9.4% pregelatinized starch, 6.4% sodium carboxymethyl starch, 1% magnesium stearate, and 3% copovidone), 0.1 g/tablet, 5 tablets/time, 2 times/day. 2) Berberine group: the subjects were administered with berberine tablets (Northeast Pharma Group Shenyang First Pharma Co., Ltd., Lot no.: 130917, each tablet weighted 0.165 g and contained 0.1 g active berberine ingredient (berberine hydrochloride), with the same excipients as the placebo tablets), 5 tablets/time, 2 times/day, plus Bifidobacterium placebo capsules (Livzon Pharmaceutical Group Inc., Lot no.: 141001, specifically containing 0.348 g spray-dried lactose, and 0.002 g magnesium stearate), 0.35 g/capsule, 2 capsules/time, 2 times/day. 3) Combination Group: the subjects were administered with Bifidobacterium capsules, 0.35 g/capsule, each capsule containing 50,000,000 viable bacteria (B. adolescentis DM8504), 2 capsules/time, 2 times/day, plus berberine tablets, 0.1 g/tablet, each tablet containing 0.1 g active berberine ingredient (berberine hydrochloride), 5 tablets/time, 2 times/day. 4) Control group: the subjects were administered with Bifidobacteria placebo capsules, 0.35 g/capsule, 2 capsules/time, 2 times/day, plus berberine placebo tablets, 0.1 g/tablet, 5 tablets/time, 2 times/day. Bifidobacterium capsules were taken after meals and berberine tablets were taken before meals. Tests of all samples in the study were carried out in a designated laboratory with standardized criteria. Blood analysis covered hundreds of indicators including insulin, amino acids, cytokines etc. After the sample testing was finished, 1) Chi-Squared test and t-test were used to evaluate the intergroup balance of the baseline data including the demographic characteristics and pre-treatment indicators, wherein the baseline data referred to those collected at the second visit, before the formal administration, the data collected at the first visit on the enrollment stage were used instead if the data at the second visit was lacking; 2) two-way disordered CM-CH11, Kruska-Wilcox test, etc. were used for analysis and intergroup comparison of pre- and post-treatment indicators such as fasting plasma glucose (FPG), HbA1c, plasma glucose at 2 hours post OGTT (2-h PPG), blood pressure, blood lipids, body weight and BMI; 3) adverse events and hypoglycemia events were described in terms of the type, frequency and relevance with the drugs, for safety evaluation. Software SAS 9.1.3 was used for statistical analysis with all analysis processes being programmed. […]

COc1ccc2cc3[n+](cc2c1OC)CCc1cc2c(cc1-3)OCO2 [Berberine, berberine hydrochloride]
Effect on total cholesterol level (in words): significantly reduce the total cholesterol level | High-density lipoprotein change, mean value (FAS): 0.00 mmol/L | Post-treatment low-density lipoprotein - pre-treatment low-density lipoprotein, mean value (FAS): -0.15 mmol/L | Post-treatment total cholesterol - pre-treatment total cholesterol, mean value (FAS): -0.2770 mmol/L | Post-treatment low-density lipoprotein, mean value (FAS): 2.76 mmol/L | Post-treatment total cholesterol, mean value (FAS): 4.6400 mmol/L | Pre-treatment low-density lipoprotein, mean value (FAS): 2.99 mmol/L | Pre-treatment total cholesterol, mean value (FAS): 5.0200 mmol/L | High-density lipoprotein change, mean value (PPS): -0.00 mmol/L

Bifidobacterium
Effect on total cholesterol level (in words): did not have evident total cholesterol lowing effect | High-density lipoprotein change, mean value (FAS): 0.03 mmol/L | Post-treatment low-density lipoprotein - pre-treatment low-density lipoprotein, mean value (FAS): -0.00247 mmol/L | Post-treatment total cholesterol - pre-treatment total cholesterol, mean value (FAS): 0.0219 mmol/L | Post-treatment low-density lipoprotein, mean value (FAS): 2.9 mmol/L | Post-treatment total cholesterol, mean value (FAS): 4.8100 mmol/L | Pre-treatment low-density lipoprotein, mean value (FAS): 2.85 mmol/L | Pre-treatment total cholesterol, mean value (FAS): 4.7600 mmol/L | High-density lipoprotein change, mean value (PPS): 0.03 mmol/L
